From US12239711B2, “Cereblon ligands and bifunctional compounds comprising the same” (Arvinas Operations, Inc., priority 2014, dated 2025)
Read-outs that look alike come from different tables or passages of the source.

Experiments:
[1] = test system: estrogen responsive element/promoter/luciferase reporter gene; assay: ERE Luciferase Assay in T47D-KBluc cells; format: cell-based, human; details: 24 hours, luciferase activity, read-out: Target Engagement IC50
Protocol: 1. ERE Luciferase Assay for Compounds in Table 5.
T47D-KBluc cells (ATCC® #CRL_2865, T47D human breast cancer cells stably transfected with estrogen responsive element/promoter/luciferase reporter gene) were seeded into 96-well white opaque plates in RPMI growth medium supplemented with 10% fetal bovine serum (FBS) and allowed to adhere overnight in a 37° C. humidified incubator. The following day, cells were treated with PROTACs in a 12-point concentration curve (top final concentration of 300 nM with subsequent concentrations being 3-fold less with 2 pM being the lowest concentration in the assay). Each PROTAC was tested independently in two experiments on 96-well plates. After 24 hours, media was removed and lysis buffer was added to the wells. Following lysis, Bright-Glo™ Luciferase Assay Substrate (Promega, Madison WI) was added and the luciferase activity was measured using a Cytation 3 plate reader (BioTek™, Winooski, VT). Each compound was assayed in duplicate and the activity was calculated as IC50 using GraphPad Prism software (San Diego, CA).

[2] = molecular target: T1, Estrogen Receptor-Alpha (ERα) (Homo sapiens, UniProt P03372); assay: Estrogen Receptor-Alpha (ERα) degradation assay in MCF-7 cells (western blot / In-Cell Western); format: cell-based; details: for Dmax: MCF7, read-out: ER Dmax; for DC50: read-out: ER DC50
T1 construct: endogenous in cells; host or cells: MCF-7 (MCF7) cells
T1 sequence (P03372 1-595): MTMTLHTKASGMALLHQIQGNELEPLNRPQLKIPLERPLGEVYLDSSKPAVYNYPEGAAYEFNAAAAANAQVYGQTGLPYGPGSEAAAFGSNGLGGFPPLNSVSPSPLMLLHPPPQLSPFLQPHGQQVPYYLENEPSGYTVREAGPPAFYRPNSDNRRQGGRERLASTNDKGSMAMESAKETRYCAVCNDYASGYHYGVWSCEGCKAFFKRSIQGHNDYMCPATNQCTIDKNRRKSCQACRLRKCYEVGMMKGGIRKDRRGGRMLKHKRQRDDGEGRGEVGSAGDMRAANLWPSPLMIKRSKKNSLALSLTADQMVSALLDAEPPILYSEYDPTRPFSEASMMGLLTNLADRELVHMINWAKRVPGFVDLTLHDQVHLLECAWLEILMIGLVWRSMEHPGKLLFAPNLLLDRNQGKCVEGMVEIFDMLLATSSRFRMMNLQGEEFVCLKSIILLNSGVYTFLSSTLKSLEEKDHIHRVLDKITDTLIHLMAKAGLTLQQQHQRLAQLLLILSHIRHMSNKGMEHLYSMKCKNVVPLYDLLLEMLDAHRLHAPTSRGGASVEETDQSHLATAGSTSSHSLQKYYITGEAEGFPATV
Protocol: 2. Estrogen Receptor-Alpha (ERα) Degradation Assay in MCF-7 Cells Using Western Blot Method for Table 5.
The exemplary novel ERα degraders were assessed for their activity in degrading ERα in MCF-7 cells via western blot. The assay was carried out in the presence of 10% FBS or high percentage of human or mouse serum. Protocols of the western blot assay are described below.
MCF7 cells were grown in DMEM/F12 with 10% FBS and seeded at 24,000 cells per well in 100 μl into 96-well clear tissue culture plates. The following day, the cells were treated with PROTACs in a […] concentration curve with 100 nM being the top concentration and serial dilutions to make the other concentrations (30 nM, 10 nM, 3 nM, 1 nM, and 0.3 nM). At all concentrations, 0.01% DMSO is the final concentration in the well. The following day, the plates are aspirated, washed with 50 μl of cold PBS. The cells are lysed with 50 μl/well 4° C. Cell Lysis Buffer (Catalog #9803; Cell Signaling Technology, Danvers, MA) (20 mM Tris-HCL (pH 7.5), 150 mM NaCl, 1 mM Na2EDTA, 1 mM EGTA, 1% Triton, 2.5 mM sodium pyrophosphate, 1 mM B-glycerophosphate, 1 mM sodium vanadate, 1 ug/ml leupeptin). Lysates were clarified at 16,000×g for 10 minutes, and 2 μg of protein was subjected to SDS-PAGE analysis and followed by immunoblotting according to standard protocols. The antibodies used were ERα (Cell Signaling Technologies Catalog #8644), and Tubulin (Sigma Catalog #T9026; St. Louis, MO). Detection reagents were Clarity Western ECL substrate (Bio-Rad Catalog #170-5060; Hercules, CA).
Alternatively, MCF7 cells were grown in DMEM/F12 with 10% FBS and seeded at 24,000 cells per well in 500 μl in 24-well clear tissue culture plates. The following day, the cells were treated with PROTACs in a 5-point concentration curve (100 nM, 33 nM, 11 nM, 3.7 nM, and 1.2 nM) in the presence of 0.01% DMSO. After 72 hours, the wells are aspirated and washed with 500 μl of PBS. The cells are lysed with 100 μl/well 4° C. Cell Lysis Buffer (Catalog #9803; Cell Signaling Technology, Danvers, MA) (20 mM Tris-HCL (pH 7.5), 150 mM NaCl, 1 mM Na2EDTA, 1 mM EGTA, 1% Triton, 2.5 mM sodium pyrophosphate, 1 mM B-glycerophosphate, 1 mM sodium vanadate, 1 ug/ml leupeptin). Lysates were clarified at 16,000×g for 10 minutes, and 2 μg of protein was subjected to SDS-PAGE analysis and followed by immunoblotting according to standard protocols. The antibodies used were ERα (Cell Signaling Technologies Catalog #8644), and Tubulin (Sigma Catalog #T9026; St. Louis, MO). Detection reagents were Clarity Western ECL substrate (Bio-Rad Catalog #170-5060; Hercules, CA).
3. Estrogen Receptor-Alpha (ERα) Degradation Assay Using In-Cell Western™ Assay for Table 5.
Degradation of ERα by claimed compounds were determined in MCF7 cells using an In-Cell Western™ assay. Briefly, MCF7 cells were plated in 96-well plates (2000 cells per well in 100 μl media) and incubated at 37° C. under an atmosphere of 5% CO2 in a humidified incubator overnight. One-hundred (100) μl of media containing test compound (at 2× concentration) was added to the appropriate wells to provide 11 serially decreasing concentrations (top final concentration, 1 μM then 3-fold less for the next 10 concentrations); a vehicle control (DMSO) was also added for each compound. For each experiment, all compounds were assayed in duplicate plates. Cells were then incubated for 3 or 5 days in the above-mentioned environment. The assay was terminated by removal of media, a single wash with ice-cold PBS and the addition of 50 μl paraformaldehyde (PFA: 4% in PBS). After 15 minutes in PFA at room temperature, the cells were permeabilized in Tris-phosphate-buffered saline with Tween (0.1%) (TBST) supplemented with Triton X-100 (0.5%) for 15 minutes. Cells were then blocked in BSA (TBST with BSA, 3%) for one hour. […]

Structure (SMILES) | IC50 ([1]; Homo sapiens) | Dmax [2] | DC50 [2] | IC50 [1] | ER Dmax [2]
COc1cc(N2CCN(C3CC4CC(Oc5ccc([C@@H]6c7ccc(O)cc7CC[C@@H]6c6ccc(F)cc6)cc5)CC4C3)CC2)cc2c1C(=O)N(C1CCC(=O)NC1=O)C2 (stereo partly drawn) [compound 16, 3-[5-[4-[5-[4-[(1R,2S)-2-(4-fluorophenyl)-6-hydroxy-tetralin-1-yl]phenoxy]-1,2,3,3a,4,5,6,6a-octahydropentalen-2-yl]piperazin-l-yl]-7-methoxy-1-oxo-isoindolin-2-yl]piperidine-2,6-dione] |  |  | < 1 nM | 0.82 nM | B (50 <= B < 75)
COCCOCCOc1c(N2CCN(CCCCCOc3ccc([C@@H]4c5ccc(O)cc5CC[C@@H]4c4ccccc4)cc3)CC2)ccc2c1CN(C1CCC(=O)NC1=O)C2=O (stereo partly drawn) [compound 4, 3-[5-[4-[5-[4-[(1R,2S)-6-hydroxy-2-phenyl-tetralin-1-yl]phenoxy]pentyl]piperazin-1-yl]-4-[2-(2-methoxyethoxy)ethoxy]-1-oxo-isoindolin-2-yl]piperidine-2,6-dione] | 1.42 nM | ≥ 75% | < 1 nM |  | 
O=C1CCC(N2Cc3cc(N4CCN(CCCCCOc5ccc([C@@H]6c7ccc(O)cc7CC[C@@H]6c6ccccc6)cc5)CC4)cc(OC(F)F)c3C2=O)C(=O)N1 (stereo partly drawn) [compound 20, 3-[7-(difluoromethoxy)-5-[4-[5-[4-[(1R,2S)-6-hydroxy-2-phenyl-tetralin-1-yl]phenoxy]pentyl]piperazin-1-yl]-1-oxo-isoindolin-2-yl]piperidine-2,6-dione] | 1.2 nM | 50 to 75% | 1 to 10 nM |  | 
COc1cc(N2CCN(CCC3(O)CC(Oc4ccc([C@@H]5c6ccc(O)cc6CC[C@@H]5c5ccccc5)cc4)C3)CC2)cc2c1C(=O)N(C1CCC(=O)NC1=O)C2 (stereo partly drawn) [compound 28, 3-[5-[4-[2-[1-hydroxy-3-[4-[(1R,2S)-6-hydroxy-2-phenyl-tetralin-1-yl]phenoxy]cyclobutyl]ethyl]piperazin-1-yl]-7-methoxy-1-oxo-isoindolin-2-yl]piperidine-2,6-dione] | 0.3 nM | ≥ 75% | < 1 nM |  | 
COc1cc(N2CCN(CCCCCOc3ccc([C@H]4c5ccc(O)cc5CC[C@H]4c4ccccc4)cc3)CC2)cc2c1C(=O)N(C1CCC(=O)NC1=O)C2 (stereo partly drawn) [compound 1, 3-{5-[4-(5-{4-[(1S,2R)-6-hydroxy-2-phenyl-1,2,3,4-tetrahydronaphthalen-1-yl]phenoxy}pentyl)piperazin-1-yl]-7-methoxy-1-oxo-2,3-dihydro-1H-isoindol-2-yl}piperidine-2,6-dione] | 58.2 nM | 50 to 75% | 10 to 100 nM |  | 
O=C1CCC(N2Cc3cc(N4CCN(CCC5CC(Oc6ccc([C@@H]7c8ccc(O)cc8CC[C@@H]7c7ccccc7)cc6)C5)CC4)cc(OC(F)F)c3C2=O)C(=O)N1 (stereo partly drawn) [compound 23, 3-[7-(difluoromethoxy)-5-[4-[2-[3-[4-[(1R,2S)-6-hydroxy-2-phenyl-tetralin-1-yl]phenoxy]cyclobutyl]ethyl]piperazin-1-yl]-1-oxo-isoindolin-2-yl]piperidine-2,6-dione] | 1.8 nM | 50 to 75% | 1 to 10 nM |  | 
O=C1CCC(n2nc3cc(N4CCN(CCCCCOc5ccc([C@@H]6c7ccc(O)cc7CC[C@@H]6c6ccccc6)cc5)CC4)ccn3c2=O)C(=O)N1 (stereo partly drawn) [compound 25, 3-{7-[4-(5-{4-[(1R,2S)-6-hydroxy-2-phenyl-1,2,3,4-tetrahydronaphthalen-1-yl]phenoxy}pentyl)piperazin-1-yl]-3-oxo-2H,3H-[1,2,4]triazolo[4,3-a]pyridin-2-yl}piperidine-2,6-dione] | 0.5 nM | < 50% |  |  | 

Further lines, with some results ahead:

IC50 ([1]; Homo sapiens) | Dmax [2] | DC50 [2] | Structure (SMILES) | IC50 [1] | ER Dmax [2]
4.5 nM | ≥ 75% | 1 to 10 nM | COc1cc(N2CCN(CC3CCN(c4c(F)cc([C@@H]5c6ccc(O)cc6CC[C@@H]5c5ccccc5)cc4F)CC3)CC2)cc2c1C(=O)N(C1CCC(=O)NC1=O)C2 (stereo partly drawn) [compound 19, 3-(5-(4-((1-(2,6-difluoro-4-((1R,2S)-6-hydroxy-2-phenyl-1,2,3,4-tetrahydronaphthalen-1-yl)phenyl)piperidin-4-yl)methyl)piperazin-1-yl)-7-methoxy-1-oxoisoindolin-2-yl)piperidine-2,6-dione] |  | 
2.1 nM | 50 to 75% | 1 to 10 nM | O=C1CCC(N2C(=O)c3ccc(N4CCN(CC5CCN(c6ccc([C@@H]7c8ccc(O)cc8CC[C@@H]7c7ccccc7)cc6F)CC5)CC4)cc3C23CC3)C(=O)N1 (stereo partly drawn) [compound 30, 3-[6′-[4-[[1-[2-fluoro-4-[(1R,2S)-6-hydroxy-2-phenyl-tetralin-1-yl]phenyl]-4-piperidyl]methyl]piperazin-1-yl]-3′-oxo-spiro[cyclopropane-1,1′-isoindoline]-2′-yl]piperidine-2,6-dione] |  | 
2.4 nM | < 50% |  | O=C1CCC(N2C(=O)c3ccc(N4CCN(CC5CCN(c6ccc([C@@H]7c8ccc(O)cc8CC[C@@H]7c7ccccc7)cc6)CC5)CC4)cc3C23CC3)C(=O)N1 (stereo partly drawn) [compound 29, 3-(6′-{4-[(1-{4-[(1R,2S)-6-hydroxy-2-phenyl-1,2,3,4-tetrahydronaphthalen-1-yl]phenyl}piperidin-4-yl)methyl]piperazin-1-yl}-3′-oxo-2′,3′-dihydrospiro[cyclopropane-1,1′-isoindole]-2′-yl)piperidine-2,6-dione] |  | 
4.4 nM | ≥ 75% | 1 to 10 nM | O=C1CCC(N2Cc3cc(N4CCN(CCC5CCN(c6ccc([C@@H]7c8ccc(O)cc8CC[C@@H]7c7ccccc7)cc6)CC5)CC4)cc(OC(F)F)c3C2=O)C(=O)N1 (stereo partly drawn) [compound 22, 3-[7-(difluoromethoxy)-5-[4-[2-[1-[4-[(1R,2S)-6-hydroxy-2-phenyl-tetralin-1-yl]phenyl]-4-piperidyl]ethyl]piperazin-1-yl]-1-oxo-isoindolin-2-yl]piperidine-2,6-dione] |  | 
